Experimental data published in ChEMBL document CHEMBL1128800, “Diastereoselective synthesis of mixanpril, an orally active dual inhibitor of neutral endopeptidase and angiotensin converting enzyme” (Bioorg Med Chem Lett, 1995).
The source made the active and inactive calls. No cut-off for these calls is given here.

Tests used:
[1] = biological target: T1, Angiotensin-converting enzyme (Rattus norvegicus) (UniProt P47820); assay: […] inhibitory activity against plasmatic angiotensin converting enzyme (ACE) in anaesthetized rats after oral administration of 5 mg/kg dose; format: organism-based; design: dose 5 mg/kg
T1 sequence (whole entry): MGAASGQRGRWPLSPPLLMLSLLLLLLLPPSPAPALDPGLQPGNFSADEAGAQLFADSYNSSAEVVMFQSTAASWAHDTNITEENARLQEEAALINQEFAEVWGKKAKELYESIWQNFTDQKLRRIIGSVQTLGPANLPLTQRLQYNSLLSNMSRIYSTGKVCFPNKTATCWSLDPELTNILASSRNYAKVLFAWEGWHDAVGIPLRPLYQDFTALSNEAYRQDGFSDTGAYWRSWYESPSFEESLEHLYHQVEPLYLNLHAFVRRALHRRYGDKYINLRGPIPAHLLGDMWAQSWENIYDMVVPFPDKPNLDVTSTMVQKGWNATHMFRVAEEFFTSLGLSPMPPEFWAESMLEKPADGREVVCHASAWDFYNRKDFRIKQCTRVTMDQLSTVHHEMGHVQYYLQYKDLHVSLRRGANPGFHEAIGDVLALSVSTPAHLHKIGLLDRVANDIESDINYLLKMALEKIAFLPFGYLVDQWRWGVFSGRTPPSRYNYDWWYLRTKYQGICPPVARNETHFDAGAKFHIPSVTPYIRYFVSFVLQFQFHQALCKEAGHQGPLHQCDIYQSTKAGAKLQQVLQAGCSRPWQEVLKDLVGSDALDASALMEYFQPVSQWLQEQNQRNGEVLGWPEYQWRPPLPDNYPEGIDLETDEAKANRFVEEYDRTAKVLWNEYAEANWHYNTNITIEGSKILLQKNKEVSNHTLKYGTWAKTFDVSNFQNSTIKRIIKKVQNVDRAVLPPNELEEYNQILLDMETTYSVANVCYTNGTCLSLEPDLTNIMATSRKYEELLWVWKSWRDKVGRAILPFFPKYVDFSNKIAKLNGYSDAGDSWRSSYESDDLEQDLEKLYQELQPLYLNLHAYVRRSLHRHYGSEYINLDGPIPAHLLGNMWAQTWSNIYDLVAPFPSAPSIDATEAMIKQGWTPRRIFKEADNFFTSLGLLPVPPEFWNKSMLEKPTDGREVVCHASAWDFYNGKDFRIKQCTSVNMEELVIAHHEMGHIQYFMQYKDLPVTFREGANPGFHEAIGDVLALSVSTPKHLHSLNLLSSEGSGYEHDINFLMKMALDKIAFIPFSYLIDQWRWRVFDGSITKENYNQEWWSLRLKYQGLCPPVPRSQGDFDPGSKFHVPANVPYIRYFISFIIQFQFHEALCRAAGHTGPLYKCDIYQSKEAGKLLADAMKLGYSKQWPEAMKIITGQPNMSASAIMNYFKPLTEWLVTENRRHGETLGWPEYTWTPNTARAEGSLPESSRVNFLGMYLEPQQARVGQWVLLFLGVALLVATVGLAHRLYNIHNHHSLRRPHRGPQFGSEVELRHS

[2] = biological target: T1, Angiotensin-converting enzyme (Rattus norvegicus); assay: Effective dose against plasmatic angiotensin converting enzyme (ACE) in anaesthetized rats; conditions: Plasma
[3] = biological target: T1, Angiotensin-converting enzyme (Rattus norvegicus); assay: […] inhibitory activity against plasmatic angiotensin converting enzyme (ACE) in anaesthetized rats after oral administration of 10 mg/kg dose; format: organism-based; design: dose 10 mg/kg
[4] = biological target: T1, Angiotensin-converting enzyme (Rattus norvegicus); assay: […] inhibitory activity against plasmatic angiotensin converting enzyme (ACE) in anaesthetized rats after oral administration of 2.5 mg/kg dose; format: organism-based; design: dose 2.5 mg/kg
[5] = biological target: T1, Angiotensin-converting enzyme (Rattus norvegicus); assay: […] inhibitory activity against plasmatic angiotensin converting enzyme (ACE) in anaesthetized rats after oral administration of 50 mg/kg dose; format: organism-based; design: dose 50 mg/kg
[6] = biological target: T1, Angiotensin-converting enzyme (Rattus norvegicus); assay: […] inhibitory activity against plasmatic angiotensin converting enzyme (ACE) in anaesthetized rats after oral administration of 25 mg/kg dose; format: organism-based; design: dose 25 mg/kg
[7] = biological target: T1, Angiotensin-converting enzyme (Rattus norvegicus); assay: […] inhibitory activity against plasmatic angiotensin converting enzyme (ACE) in anaesthetized rats after oral administration of 100 mg/kg dose; format: organism-based; design: dose 100 mg/kg
[8] = biological target: T1, Angiotensin-converting enzyme (Rattus norvegicus); assay: […] inhibitory activity against plasmatic angiotensin converting enzyme (ACE) in anaesthetized rats after oral administration of 150 mg/kg dose; format: organism-based; design: dose 150 mg/kg
[9] = biological target: T2, Neprilysin (Rattus norvegicus) (UniProt P07861); assay: Tested for inhibitory activity against neutral endopeptidase at a dose of 2.5 mg/kg in rats; Active; format: organism-based; design: dose 2.5 mg/kg
T2 sequence (whole entry): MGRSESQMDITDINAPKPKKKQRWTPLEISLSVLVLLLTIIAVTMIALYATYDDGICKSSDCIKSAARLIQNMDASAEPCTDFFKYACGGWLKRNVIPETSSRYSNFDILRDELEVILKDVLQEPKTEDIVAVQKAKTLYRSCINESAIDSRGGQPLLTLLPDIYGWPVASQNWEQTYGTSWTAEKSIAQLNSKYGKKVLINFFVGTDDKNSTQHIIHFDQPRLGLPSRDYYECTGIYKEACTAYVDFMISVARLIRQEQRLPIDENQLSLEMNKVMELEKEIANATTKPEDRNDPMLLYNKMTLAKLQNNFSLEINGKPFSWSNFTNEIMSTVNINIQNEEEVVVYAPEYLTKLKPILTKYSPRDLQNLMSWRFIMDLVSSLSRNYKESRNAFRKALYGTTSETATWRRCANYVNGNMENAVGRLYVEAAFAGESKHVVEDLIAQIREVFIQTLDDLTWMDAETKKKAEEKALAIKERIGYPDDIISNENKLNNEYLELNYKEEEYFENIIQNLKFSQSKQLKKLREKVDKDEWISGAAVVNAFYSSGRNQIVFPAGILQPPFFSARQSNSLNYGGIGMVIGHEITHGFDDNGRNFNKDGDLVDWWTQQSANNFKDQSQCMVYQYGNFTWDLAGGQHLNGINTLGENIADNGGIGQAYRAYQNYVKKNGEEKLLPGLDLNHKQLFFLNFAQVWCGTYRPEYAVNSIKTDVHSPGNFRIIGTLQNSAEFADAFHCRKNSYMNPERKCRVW

`CC(NC(=O)C(CSC(=O)c1ccccc1)C(C)c1ccccc1)C(=O)O` (centres undefined) showed an inhibition [1] of 35%, an ED50 [2] of 12 mg/kg and an inhibition [3] of 50%. The inhibition [4] was 25%, the inhibition [5] was 65% and the inhibition [6] was 55%. The inhibition [7] was 70%, the inhibition [8] was 82% and the Activity [9] was “Active”.
